In PubChem BioAssay (NCI):
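Briefly, cells in 96-well plates were exposed to five compound concentrations for 48 h, and endpoints were estimated by linear interpolation. GI50 is the concentration that inhibits growth by half. TGI denotes the concentration required for complete inhibition of growth.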

Legend:
Test in all cases: inhibition of tumour cell growth, NCI panel, 48 h
SK-OV-3 ovarian = system: SK-OV-3 ovarian
TK-10 renal = system: TK-10 renal
BT-549 breast = system: BT-549 breast
SF-539 CNS = system: SF-539 CNS
UACC-257 melanoma = system: UACC-257 melanoma
SW-620 colon = system: SW-620 colon
UACC-62 melanoma = system: UACC-62 melanoma
M14 melanoma = system: M14 melanoma
OVCAR-8 ovarian = system: OVCAR-8 ovarian
SN12C renal = system: SN12C renal
PC-3 prostate = system: PC-3 prostate
HCT-116 colon = system: HCT-116 colon
CAKI-1 renal = system: CAKI-1 renal
MOLT-4 leukemia = system: MOLT-4 leukemia
MALME-3M melanoma = system: MALME-3M melanoma
EKVX NSCLC = system: EKVX NSCLC
SF-268 CNS = system: SF-268 CNS
A549 NSCLC = system: A549 NSCLC
LOX IMVI melanoma = system: LOX IMVI melanoma
SNB-19 CNS = system: SNB-19 CNS
OVCAR-3 ovarian = system: OVCAR-3 ovarian
HOP-62 NSCLC = system: HOP-62 NSCLC
MDA-MB-435 = system: MDA-MB-435
OVCAR-5 ovarian = system: OVCAR-5 ovarian
HCC-2998 colon = system: HCC-2998 colon
786-0 renal = system: 786-0 renal
T-47D breast = system: T-47D breast

Structure (SMILES): COc1ccc2c(c1)c(-c1nonc1-c1cn(C)c3ccccc13)cn2C
- GI50 (SK-OV-3 ovarian): 536 nM
- TGI (SK-OV-3 ovarian): > 100000 nM
- GI50 (TK-10 renal): 2260 nM
- TGI (TK-10 renal): > 100000 nM
- GI50 (BT-549 breast): 798 nM
- TGI (BT-549 breast): > 100000 nM
- GI50 (SF-539 CNS): 312 nM
- TGI (SF-539 CNS): 1530 nM
- GI50 (UACC-257 melanoma): 463 nM
- TGI (UACC-257 melanoma): > 100000 nM
- GI50 (SW-620 colon): 367 nM
- TGI (SW-620 colon): > 100000 nM
- GI50 (UACC-62 melanoma): 493 nM
- TGI (UACC-62 melanoma): > 100000 nM
- GI50 (M14 melanoma): 373 nM
- TGI (M14 melanoma): > 100000 nM
- GI50 (OVCAR-8 ovarian): 570 nM
- TGI (OVCAR-8 ovarian): > 100000 nM
- GI50 (SN12C renal): 697 nM
- TGI (SN12C renal): > 100000 nM
- GI50 (PC-3 prostate): 481 nM
- TGI (PC-3 prostate): > 100000 nM
- GI50 (HCT-116 colon): 441 nM
- TGI (HCT-116 colon): > 100000 nM
- GI50 (CAKI-1 renal): 382 nM
- TGI (CAKI-1 renal): > 100000 nM
- GI50 (MOLT-4 leukemia): 668 nM
- TGI (MOLT-4 leukemia): > 100000 nM
- GI50 (MALME-3M melanoma): 675 nM
- TGI (MALME-3M melanoma): > 100000 nM
- GI50 (EKVX NSCLC): 1110 nM
- TGI (EKVX NSCLC): > 100000 nM
- GI50 (SF-268 CNS): 1290 nM
- TGI (SF-268 CNS): > 100000 nM
- GI50 (A549 NSCLC): 629 nM
- TGI (A549 NSCLC): > 100000 nM
- GI50 (LOX IMVI melanoma): 588 nM
- TGI (LOX IMVI melanoma): > 100000 nM
- GI50 (SNB-19 CNS): 556 nM
- TGI (SNB-19 CNS): > 100000 nM
- GI50 (OVCAR-3 ovarian): 336 nM
- TGI (OVCAR-3 ovarian): 8750 nM
- GI50 (HOP-62 NSCLC): 670 nM
- TGI (HOP-62 NSCLC): > 100000 nM
- GI50 (MDA-MB-435): 169 nM
- TGI (MDA-MB-435): 554 nM
- GI50 (OVCAR-5 ovarian): 1250 nM
- TGI (OVCAR-5 ovarian): > 100000 nM
- GI50 (HCC-2998 colon): 1110 nM
- TGI (HCC-2998 colon): > 100000 nM
- GI50 (786-0 renal): 628 nM
- TGI (786-0 renal): > 100000 nM
- GI50 (T-47D breast): 542 nM
